Patent publication EP0199985A2, “Benzoic-acid derivatives, pharmaceutical preparations comprising them and process for preparing these compounds and pharmaceutical preparations” (Grünenthal GmbH, priority 1985, dated 1986)

target: T1, 5-Lipoxygenase (Rattus norvegicus, UniProt P12527); assay: 5-lipoxygenase inhibition in cultured rat basophilic leukemic leukocytes (radiolabelled arachidonic acid, TLC of 5-HETE and LTB4); assay type: cell-based, Ratte; details: rat basophilic leukemic leukocytes in 50 mM potassium phosphate buffer pH 7.4; indomethacin 10 µM, CaCl2 2 mM, labelled arachidonic acid + ionophore A 23 187, 5 min, room temperature; formation of 5-HETE and LTB4
T1 construct: basophile leukämische Leukozyten der Ratte in-vitro gezüchtet; endogenous in cells; whole cells suspended in phosphate buffer, stimulated with A 23187
T1 sequence (P12527 1-673): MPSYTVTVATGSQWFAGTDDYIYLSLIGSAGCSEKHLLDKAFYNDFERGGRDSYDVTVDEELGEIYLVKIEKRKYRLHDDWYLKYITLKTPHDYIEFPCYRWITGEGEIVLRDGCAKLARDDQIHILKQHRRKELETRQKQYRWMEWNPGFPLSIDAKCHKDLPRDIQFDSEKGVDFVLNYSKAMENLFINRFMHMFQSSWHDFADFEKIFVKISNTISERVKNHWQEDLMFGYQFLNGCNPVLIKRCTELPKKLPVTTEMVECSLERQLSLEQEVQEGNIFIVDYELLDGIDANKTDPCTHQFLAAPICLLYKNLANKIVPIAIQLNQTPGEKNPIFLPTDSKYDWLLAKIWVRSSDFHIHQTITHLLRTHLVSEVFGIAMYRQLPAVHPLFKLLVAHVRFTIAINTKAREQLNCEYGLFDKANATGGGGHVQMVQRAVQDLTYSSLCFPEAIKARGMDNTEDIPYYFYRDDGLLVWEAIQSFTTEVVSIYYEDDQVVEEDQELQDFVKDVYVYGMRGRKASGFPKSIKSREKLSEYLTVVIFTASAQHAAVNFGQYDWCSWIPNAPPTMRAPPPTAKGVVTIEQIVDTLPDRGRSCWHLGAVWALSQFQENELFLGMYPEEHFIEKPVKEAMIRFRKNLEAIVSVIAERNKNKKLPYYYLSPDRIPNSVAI
Method: Zur Ermittlung der 5-Lipoxygenasehemmung wurden basophile leukämische Leukozyten der Ratte in-vitro gezüchtet und nach Erreichen einer Zelldichte von ca. 10^6 Zellen pro ml bei 400 g vom Nährmedium abzentrifugiert. Der Rückstand wurde in 50 mM Kaliumphosphatpuffer vom pH 7,4 so suspendiert, daß die Zellzahl […] Zellen pro ml betrug.
Jeweils 1 ml dieser Suspension wurde mit Indomethacin (10 uM) und Calciumchlorid (2 mM) versetzt und in An-oder Abwesenheit einer der Testsubstanzen mit radioaktiv markierter Arachi- 5 donsäure und dem Calcium-lonophor A 23 187 bei Raumtemperatur für 5 Minuten inkubiert. Nach Ansäuern auf pH 5 wurden die unter dem Einfluß der 5-Lipoxygenase gebildeten Arachidonsäuremetaboliten mit Ethylacetat extrahiert und 10 mit einem für die Leukotriene geeigneten Fließmittelgemisch dünnschichtchromatographisch getrennt [vgl. Jakschik et al. Biochem. Biophys. Res. Commun. 102, 624 (1981)]. Die Radioaktivitätsverteilung auf die verschiedenen Metaboliten 15 wurde mit Hilfe eines Dünnschichtscanners gemessen. Setzt man die prozentualen Bildungsanteile der 5-Lipoxygenaseprodukte (5-HETE und LTB4) zu der Menge bzw. Konzentration der eingesetzten Gesamtradioaktivität bzw. der Testsubstanz 20 der Formel I in Relation, so läßt sich der IC50-Wert-(d. h. die Konzentration, die eine 50 %-ige Hemmung der 5-Lipoxygenase bewirkt) ermitteln.

| Structure (SMILES) | IC50 [nM] |
| --- | --- |
| CCCCCC(O)/C=C/C#CCC#CCC#Cc1cccc(C(=O)OC)c1 (stereo not drawn) [Beispiel 1, 3-(11'-Hydroxy-hexadec-9'E-en-1',4',7'-triin-1'-yl)-benzoesäuremethylester] | 1700 |
| COC(=O)c1cccc(C#CCC#CCC#C/C=C/C(O)C2CCCCC2)c1 (stereo not drawn) [Beispiel 4, 3-(11'-Cyclohexyl-11'-hydroxy-undec-9'E-en-1',4',7-triin-1'-yl)-benzoesäuremethylester] | 1400 |
| CCCCCC(O)/C=C/C=C\C/C=C\C/C=C\c1ccc(C(=O)OC)cc1 (stereo not drawn) [Beispiel 7, 4-(11'-Hydroxy-hexadeca-1'Z,4'Z,7'Z,9'E-tetraen-1'-yl)-benzoesäuremethylester] | 1000 |
| CN(O)C(=O)c1ccc(C#CCCCCCCC#CCO)cc1 [Beispiel 11, 4-(11'-Hydroxy-undeca-1',9'-diin-1'-yl)-N-methylbenzhydroxamsäure] | 200 |
| CN(O)C(=O)c1cccc(C#CCCCCCCC#CCO)c1 [Beispiel 16] | 1000 |
| O=C(c1cccc(C#CCCCCCCC#CCO)c1)N1CCCCC1 [Beispiel 17, 3-(11 '-Hydroxy-undeca-1',9'-diin-1'-yl)-benzoesäurepiperidid] | 2300 |
| CCOC(=O)c1cccc(C#CCCCCCCC#CCO)c1 [Beispiel 18, 3-(11 '-Hydroxy-undeca-1',9'-diin-1-yl)-benzoesäureethylester] | 7500 |
| CN(O)C(=O)c1cccc(C#CCCCCCCC#CC(O)C2CCCCC2)c1 (stereo not drawn) [Beispiel 23biii, 3-(11'-Cyclohexyl-11'-hydroxy-undeca-1',9'-diin-1'-yl)-N-methylbenzhydroxamsäure] | 500 |
| CCCN(CCC)C(=O)c1cccc(C#CCCCCCCC#CCO)c1 [Beispiel 24g, 3-(11'-Hydroxy-undeca-1',9'-diin-1'-yl)-benzoesäure-[N,N-di-(n-propyl)]-amid] | 2400 |
| CC(=O)ON(C)C(=O)c1cccc(C#CCCCCCCC#CCO)c1 [Beispiel 24l, 3-(11'-Hydroxy-undeca-1',9'-diin-1'-yl)-benzoesäure-(N-methyl-N-acetoxy)-amid] | 500 |
| CC(C)N(C(=O)c1cccc(C#CCCCCCCC#CCO)c1)C(C)C [Beispiel 24n, 3-(11'-Hydroxy-undeca-1',9'-diin-1'-yl)-benzoesäure-[N,N-di-(isopropyl)]-amid] | 1600 |
| CCCCCNC(=O)c1cccc(C#CCCCCCCC#CCOC(C)=O)c1 [Beispiel 27a, 3-(11 '-Acetoxy-undeca-1',9'-diin-1'-yl)-benzoesäure-n-pentylamid] | 7000 |
